Here are results for 3 molecules from patent US11352354B2, “Substituted penta-fused hexa-heterocyclic compounds, preparation method therefor, drug combination and use thereof” (Xiamen University, priority 2017, dated 2022).

“Also recorded” adds a separate entry of the source.

In assay [1] the test system is JeKo-1 cells. As to the kind of experiment: Lysosomal dysfunction caused by inhibition of PIKfyve, Western Blot of cathepsins in JeKo-1 cells. The following applies: treatment for 24 hr, FIG. 3. Type of assay: cell-based. The text has this: V. Lysosomal Dysfunction Caused by Inhibition of Compound V-c-17 on PIKfyve (FIG. 3)
After treatment with V-c-17 for 24 hr, JeKo-1 cells were lysed and tested by Western Blot. […] This was similar to the treatment result with the known PIKfyve inhibitor apilimod.

Assay [2] deals with A375. As to the kind of experiment: Tumor cell growth inhibition by MTS method, A375. Type of assay: cell-based. The settings on record: Homo sapiens, A-375; A375, 3.3 μM; read-out: Inhibition rate %. As to the method:
(§1) III. Determination of IC50 Value of Compound for Inhibiting Tumor Cell Growth by MTS Method
(§2) 1. Cell plating: cells in logarithmic growth phase were counted and inoculated in a 96-well plate (20000 cells per well).
(§3) 2. Administrating agent to cell: 10 mM compound mother solution in DMSO was subjected to 3 fold-gradient dilution, to set 8 concentrations, which were then added to various wells, with three replicates for each concentration, and three blank wells (only culture medium) and three negative controls (containing 0.1% DMSO) on each plate.
(§4) 3. […] The OD value at 490 nm was measured with microplate reader OD490. The cell growth inhibition rate was calculated by the following formula: Cell growth inhibition rate %=1−(ODexperimental group−ODblank group)/(ODnegative group−ODblank group)×100%
On the technique in general: Tetrazolium assays rely on reduction of a dye to a coloured formazan, in cell work by metabolically active cells.

Assay [3] concerns MDA-MB-231 cells. As to the kind of experiment: Vacuolation of MDA-MB-231 cells caused by inhibition of compounds on PIKfyve (microscopy). Also: key: '+' represents the degree of vacuolation; ++: more '+' indicates more obvious vacuolation; +++: more '+' indicates more obvious vacuolation; ++++: more '+' indicates more obvious vacuolation; '−' represents no vacuolation. Type of assay: cell-based. The following applies: MDA-MB-231 cells. In short, it runs like this: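 MDA-MB-231 cells in 12-well plates at 37 °C, 5% CO2 were observed by microscopy after 24 and 48 h of culture for cytoplasmic vacuolation as a readout of PIKfyve inhibition. Scoring was semi-quantitative, from − (none) to increasing +.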

The test system of assay [4] is MCF-7. As to the kind of experiment: Tumor cell growth inhibition by MTS method, MCF-7. Type of assay: cell-based. The following applies: Homo sapiens, MCF7; MCF-7, 3.3 μM; read-out: Inhibition rate %. As to the method: as §1, §2, §3, §4
Assay [5] deals with MDA-MB-435S. The assay can be described thus: Tumor cell growth inhibition by MTS method, MDA-MB-435S. Type of assay: cell-based. The following applies: Homo sapiens, read-out: Inhibition rate %. As to the method: as §1, §2, §3, §4
For assay [6], the system named is SK-MEL-30. As to the kind of experiment: Tumor cell growth inhibition by MTS method, SK-MEL-30. Type of assay: cell-based. The settings on record: Homo sapiens; SK-MEL-30, 3.3 μM; read-out: Inhibition rate %. As to the method: as §1, §2, §3, §4
The subject of assay [7] is MDA-MB-231. As to the kind of experiment: Tumor cell growth inhibition by MTS method, MDA-MB-231. Type of assay: cell-based. The settings on record: Homo sapiens; MDA-MB-231, 3.3 μM; read-out: Inhibition rate %. As to the method:
as §1, §2, §3, §4

The subject of assay [8] is SK-MEL-28. As to the kind of experiment: Tumor cell growth inhibition by MTS method, SK-MEL-28. The following applies: Homo sapiens; SK-MEL-28, 3.3 μM; read-out: Inhibition rate %. Format: cell-based. As to the method: as §1, §2, §3, §4
Assay [9] concerns JeKo-1 cells. As to the kind of experiment: Tumor cell growth inhibition by MTS method, JeKo-1. Format: cell-based. The following applies: Homo sapiens, JeKo-1, 120 h, 5 days of culture. In short, it runs like this:
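Cells seeded at 20000 per well, treated with 8-point 3-fold dilutions from 10 mM DMSO stock in triplicate, 0.1% DMSO controls. MTS read at OD490; IC50 from inhibition rates, or % inhibition at 10 μM.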

Assay [10] concerns HepG2. The assay can be described thus: Tumor cell growth inhibition by MTS method, HepG2. Type of assay: cell-based. The settings on record: Homo sapiens; HepG2, 3.3 μM; read-out: Inhibition rate %. As to the method: as §1, §2, §3, §4
The test system of assay [11] is MDA-MB-231 xenograft. As to the kind of experiment: Xenograft model of triple negative breast cancer cells (MDA-MB-231) in nude mice. Format: in vivo. As to the method:
1. 4-6 weeks old female nude mice were injected subcutaneously with about 5×10^6 MDA-MB-231 cells;
2. When tumor volume (length×width×height×0.5) reached about 100 mm^3, the mice were randomly divided into three groups: control group, group with a dose of 5 mg/kg once a day, and group with a dose of 20 mg/kg once a day, and the initial tumor volume was recorded.
3. The drug or the control solvent was administered intravenously on time every day, the tumor volume was measured every day, and the procedures were continued for 12 days;
(§5) 4. In the last day, the mice were killed 6 hours after administration, the tumor grown under skin was completely peeled off, and the tumor weight was recorded.

The test system of assay [12] is A549. As to the kind of experiment: Tumor cell growth inhibition by MTS method, A549. The settings on record: Homo sapiens; A549, 3.3 μM; read-out: Inhibition rate %. Format: cell-based. As to the method:
as §1, §2, §3, §4

Assay [13] has as its system HCT116. The assay can be described thus: Tumor cell growth inhibition by MTS method, HCT116. The settings on record: Homo sapiens, HCT-116; HCT116, 3.3 μM; read-out: Inhibition rate %. Type of assay: cell-based. As to the method:
as §1, §2, §3, §4

Assay [14] concerns BGC823. The assay can be described thus: Tumor cell growth inhibition by MTS method, BGC823. Format: cell-based. The following applies: Homo sapiens, BGC-823; BGC823, 3.3 μM; read-out: Inhibition rate %. As to the method:
as §1, §2, §3, §4

In assay [15] the test system is JeKo-1 xenograft. As to the kind of experiment: Xenograft model of non-Hodgkin's lymphoma cells (JeKo-1) in nude mice. Format: in vivo. The following applies: 25 mg/kg once a day or twice a day. The method, then: 1. 4-6 weeks old female nude mice were injected subcutaneously with about 1×10^7 JeKo-1 cells;
2. When tumor volume (length×width×height×π/4) reached about 100 mm^3, the mice were randomly divided into four groups: control group, V-c-17 group with a dose of 25 mg/kg once a day, V-c-17 group with a dose of 25 mg/kg twice a day, and apilimod group with a dose of 25 mg/kg once a day, and the initial tumor volume was recorded.
3. The drug or the control solvent was administered intravenously on time every day, the tumor volume was measured every day, and the procedures were continued for 7 days;
as §5

Assay [16] relates to Toledo cells. The assay can be described thus: Growth inhibition of PIKfyve-mediated tumor cells by Cell Titer Glo method, Toledo. The settings on record: Homo sapiens, 120 h, CellTiter-Glo, 5 days of culture, read-out: Inhibition rate % (Toledo). Type of assay: cell-based. The method, then: (§6) IV. Determination of Growth Inhibition Rates of Compounds Against PIKfyve-Mediated Tumor Cells by Cell Titer Glo Method
(§7) 1. Cell plating: cells in logarithmic growth phase were counted and inoculated in 384-well plate.
(§8) 3. […] RLU was measured on PHERAstar Plus.
Background: Cellular ATP, detected with luciferase, serves as a proxy for viable cell number.

For assay [17], the system named is ST486 cells. As to the kind of experiment: Growth inhibition of PIKfyve-mediated tumor cells by Cell Titer Glo method, ST486. Type of assay: cell-based. The following applies: Homo sapiens, 120 h, CellTiter-Glo, 5 days of culture, read-out: Inhibition rate % (ST486). The method, then:
as §6, §7, §8

The target of assay [18] is PIKfyve protein (Homo sapiens (Human), UniProt Q9Y2I7). As to the kind of experiment: Dissociation equilibrium constant (Kd) of compound and PIKfyve protein, DiscoverX KINOMEscan. Format: binding. The following applies: eleven 3-fold dilutions, curve fitting. The method, then: II. Determination of Dissociation Equilibrium Constant (Kd Value) of Compound and PIKfyve Protein
The Kd value was determined by DiscoverX's KINOMEscan™ technology according to the following steps:
1. Preparation of magnetic beads: biotin-labeled small molecule ligand and avidin-coated magnetic beads were allowed to interact at room temperature for 30 minutes, and then added with excess biotin, followed by washing with a blocking solution (1% BSA, 0.05% Tween 20, 1 mM DTT) to remove unbound ligand.
2. Binding reaction: in a 384 plate, 0.02 mL system, DNA-labeled protein, small molecule ligand-bound magnetic beads, and different concentrations of compound to be tested were mixed in a reaction solution (0.17×PBS, 0.05% Tween 20, 6 mM DTT) at room temperature with shaking for 1 hr, to which was added an eluant (1×PBS, 0.05% Tween 20) for elution. Magnetic beads were resuspended by an eluant (1×PBS, 0.05% Tween 20, 0.5 μM non-biotin-labeled small molecule ligand), and shaken at room temperature for 30 min before separating out the eluant.
3. Determination of Kd value: the content of protein in the above eluate was determined by qPCR. Eleven 3-fold dilution concentrations were determined for the compound to be tested, with 3 DMSO controls for each concentration, and the Kd value was obtained by curve fitting.

Sequence of PIKfyve protein (Q9Y2I7 whole entry): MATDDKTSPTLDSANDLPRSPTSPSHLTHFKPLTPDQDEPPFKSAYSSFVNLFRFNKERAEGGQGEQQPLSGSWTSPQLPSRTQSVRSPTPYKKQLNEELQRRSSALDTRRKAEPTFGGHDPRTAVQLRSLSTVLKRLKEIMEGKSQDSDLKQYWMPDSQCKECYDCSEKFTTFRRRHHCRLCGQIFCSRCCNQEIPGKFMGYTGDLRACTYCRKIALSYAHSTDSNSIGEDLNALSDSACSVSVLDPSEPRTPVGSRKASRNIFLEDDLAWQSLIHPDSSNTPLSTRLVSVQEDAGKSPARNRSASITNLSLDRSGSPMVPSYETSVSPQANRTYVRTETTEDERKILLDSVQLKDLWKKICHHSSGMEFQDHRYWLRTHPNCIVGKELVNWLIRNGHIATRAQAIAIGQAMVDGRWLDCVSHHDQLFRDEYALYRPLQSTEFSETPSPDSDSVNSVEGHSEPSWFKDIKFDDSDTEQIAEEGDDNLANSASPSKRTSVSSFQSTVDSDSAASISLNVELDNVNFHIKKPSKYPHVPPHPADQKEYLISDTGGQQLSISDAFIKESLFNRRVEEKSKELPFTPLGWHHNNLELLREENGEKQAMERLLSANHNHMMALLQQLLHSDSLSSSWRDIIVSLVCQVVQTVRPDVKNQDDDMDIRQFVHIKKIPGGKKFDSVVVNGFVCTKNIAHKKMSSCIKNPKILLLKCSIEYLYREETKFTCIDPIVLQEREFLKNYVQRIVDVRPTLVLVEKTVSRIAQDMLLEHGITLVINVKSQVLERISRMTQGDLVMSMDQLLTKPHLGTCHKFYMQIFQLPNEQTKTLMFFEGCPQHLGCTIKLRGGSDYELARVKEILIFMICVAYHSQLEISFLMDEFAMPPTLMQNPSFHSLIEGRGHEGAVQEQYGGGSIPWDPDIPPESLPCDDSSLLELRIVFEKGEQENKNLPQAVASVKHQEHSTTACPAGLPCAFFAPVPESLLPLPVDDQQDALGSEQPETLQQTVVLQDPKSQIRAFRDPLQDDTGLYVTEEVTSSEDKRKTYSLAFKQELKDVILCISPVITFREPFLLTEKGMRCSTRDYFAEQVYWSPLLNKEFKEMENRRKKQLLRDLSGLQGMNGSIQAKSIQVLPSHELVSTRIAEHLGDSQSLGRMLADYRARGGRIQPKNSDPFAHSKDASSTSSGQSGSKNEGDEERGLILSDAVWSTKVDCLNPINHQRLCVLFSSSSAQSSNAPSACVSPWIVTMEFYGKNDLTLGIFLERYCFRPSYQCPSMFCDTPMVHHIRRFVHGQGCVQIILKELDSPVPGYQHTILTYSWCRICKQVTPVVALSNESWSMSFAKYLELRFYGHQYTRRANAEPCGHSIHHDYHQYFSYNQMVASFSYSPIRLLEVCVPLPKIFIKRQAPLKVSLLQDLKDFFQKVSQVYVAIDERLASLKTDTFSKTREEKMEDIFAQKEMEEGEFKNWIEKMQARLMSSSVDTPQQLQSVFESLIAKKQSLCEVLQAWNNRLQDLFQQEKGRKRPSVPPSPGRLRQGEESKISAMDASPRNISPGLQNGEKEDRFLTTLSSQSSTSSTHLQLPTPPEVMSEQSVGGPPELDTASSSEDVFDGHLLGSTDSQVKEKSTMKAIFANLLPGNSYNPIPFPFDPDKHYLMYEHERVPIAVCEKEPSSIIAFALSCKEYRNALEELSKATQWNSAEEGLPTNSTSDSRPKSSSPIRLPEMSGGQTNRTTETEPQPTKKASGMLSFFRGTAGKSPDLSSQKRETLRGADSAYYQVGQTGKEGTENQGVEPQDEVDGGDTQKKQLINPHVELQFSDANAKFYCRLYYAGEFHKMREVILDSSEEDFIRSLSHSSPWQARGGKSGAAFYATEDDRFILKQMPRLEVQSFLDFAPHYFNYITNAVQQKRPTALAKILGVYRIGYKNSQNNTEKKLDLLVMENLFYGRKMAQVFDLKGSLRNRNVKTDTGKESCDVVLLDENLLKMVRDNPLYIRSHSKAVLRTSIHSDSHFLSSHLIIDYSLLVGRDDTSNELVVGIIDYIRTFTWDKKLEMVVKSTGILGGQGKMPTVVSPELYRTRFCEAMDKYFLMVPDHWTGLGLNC

Take `Cc1cccc(/C=N/Nc2cc(N3CCOCC3)nc(OCCc3ccccn3)n2)c1` [apilimod, reference compound]: in assay [1], the “immature cathepsin A and cathepsin D (Western Blot)” value was “immature cathepsins A and D gradually increase, with good dose dependence”.

`Cc1ccc(NC(=O)c2cccc(C(F)(F)F)c2)cc1Nc1cc(-c2cccnc2)nc2[nH]ccc12` [I-a-1]: the inhibition (in general, the relative decrease from the control value, in per cent) at 3.3 µM in assay [2] turned out to be 94%; in assay [4], 44.2%; in [5], 56.2%; in [6], 61.9%; in [7], 48.4%; in [8] it was 64%. In addition, the inhibition at 3.3 µM is 64.8% in [10], 65.3% in [12], 55.8% in assay [13] and 54% in assay [14]. Also, the “degree of vacuolation, 1 μM, 24 h” value in [3] is “+++”. Besides, the “degree of vacuolation, 1 μM, 48 h” value in assay [3] is “+++”. The “degree of vacuolation, 10 μM, 24 h” value in [3] is reported as “+++”. In addition, the “degree of vacuolation, 10 μM, 48 h” value in assay [3] is recorded as “+++”. For the same molecule, the IC50 (as a rule, the midpoint of a concentration-inhibition curve) in assay [9] amounted to 2040 nM. The tumor volume entry in assay [11] (MDA-MB-231 xenograft mice, tail vein, 5 mg/kg, 20 mg/kg every day, FIG. 4a) was “effectively inhibit the increase of tumor volume, with good dose dependence”. Also, the final tumor weight entry in assay [11] (MDA-MB-231 xenograft mice, tail vein, 5 mg/kg, 20 mg/kg every day, FIG. 4b) is given as “significantly smaller than that in the control group, with good dose dependence”. In addition, the tumor growth result in assay [11] (MDA-MB-231 xenograft, nude mice, intravenous, 5 mg/kg and 20 mg/kg once a day, 12 days, FIG. 4) is given as “Effectively Inhibited Tumor Growth”.

Consider `COc1ccc(C(=O)Nc2cccc(C(F)(F)F)c2)cc1Nc1nc(-c2cccnc2)c2[nH]ccc2n1` [V-c-17], for which, in assay [3], the “degree of vacuolation, 1 μM, 24 h” value is on record as “++”; the “degree of vacuolation, 1 μM, 48 h” value was “−”; the “degree of vacuolation, 10 μM, 24 h” value was “++”; the “degree of vacuolation, 10 μM, 48 h” value is on record as “+”. In [15] (JeKo-1 xenograft mice, tail vein, FIG. 5a), the tumor volume result is “effectively inhibit the increase of tumor volume, with good dose dependence”. The final tumor weight entry in assay [15] (JeKo-1 xenograft mice, tail vein, FIG. 5b) is reported as “significantly smaller than that in the control group, with good dose dependence”. Also, the tumor growth entry in assay [15] (JeKo-1 xenograft, nude mice, intravenous, 7 days, FIG. 5) is reported as “Effectively Inhibited Tumor Growth”. The inhibition at 3.3 µM in [16] was found to be 99.7%. Moreover, the “immature cathepsin A and cathepsin D (Western Blot)” value in assay [1] is “immature cathepsins A and D gradually increase, with good dose dependence; also recorded: immature cathepsin A and cathepsin D increased, and had good concentration dependence”. In assay [9], the midpoint of inhibition, the IC50, lay at 743 nM. For the same molecule, in [17], the inhibition at 3.3 µM amounted to 95.7%. Also, in [18], the affinity, expressed as Kd, was 640 nM.
